Measurements as given in PubChem BioAssay (NCI).
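1) Cells in 96-well plates. 2) Compound, 48 h, 5 concentrations. 3) Linear interpolation between surrounding doses. 4) Unreached endpoint = highest concentration. Abbreviation: GI50, concentration required for 50% inhibition of growth. The concentration for full growth arrest is given as TGI.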

What was measured:
Test in all cases: inhibition of tumour cell growth, NCI panel, 48 h
TK-10 renal = test system: TK-10 renal
NCI-H226 lung = test system: NCI-H226 lung
K-562 leukemia = test system: K-562 leukemia
MDA-MB-231 breast = test system: MDA-MB-231 breast
CAKI-1 renal = test system: CAKI-1 renal
SN12C renal = test system: SN12C renal
RPMI-8226 leukemia = test system: RPMI-8226 leukemia
SK-MEL-2 melanoma = test system: SK-MEL-2 melanoma
U251 CNS = test system: U251 CNS
SF-268 CNS = test system: SF-268 CNS
786-0 renal = test system: 786-0 renal
KM12 colon = test system: KM12 colon
NCI-H23 lung = test system: NCI-H23 lung
COLO 205 colon = test system: COLO 205 colon
HT29 colon = test system: HT29 colon
IGROV1 ovarian = test system: IGROV1 ovarian
SK-OV-3 ovarian = test system: SK-OV-3 ovarian
HOP-62 NSCLC = test system: HOP-62 NSCLC
SF-539 CNS = test system: SF-539 CNS
A549 NSCLC = test system: A549 NSCLC
HCT-116 colon = test system: HCT-116 colon
SR leukemia = test system: SR leukemia
M14 melanoma = test system: M14 melanoma
OVCAR-8 ovarian = test system: OVCAR-8 ovarian
HCT-15 colon = test system: HCT-15 colon
SK-MEL-5 melanoma = test system: SK-MEL-5 melanoma
SNB-19 CNS = test system: SNB-19 CNS
T-47D breast = test system: T-47D breast
UACC-62 melanoma = test system: UACC-62 melanoma
OVCAR-4 ovarian = test system: OVCAR-4 ovarian
SK-MEL-28 melanoma = test system: SK-MEL-28 melanoma
MCF7 breast = test system: MCF7 breast
A498 renal = test system: A498 renal
UACC-257 melanoma = test system: UACC-257 melanoma
NCI/ADR-RES ovarian = test system: NCI/ADR-RES ovarian
SF-295 CNS = test system: SF-295 CNS
MALME-3M melanoma = test system: MALME-3M melanoma
HL-60(TB) leukemia = test system: HL-60(TB) leukemia
EKVX NSCLC = test system: EKVX NSCLC
CCRF-CEM leukemia = test system: CCRF-CEM leukemia
MDA-MB-435 = test system: MDA-MB-435
HCC-2998 colon = test system: HCC-2998 colon
PC-3 prostate = test system: PC-3 prostate
HS 578T breast = test system: HS 578T breast
UO-31 renal = test system: UO-31 renal
MOLT-4 leukemia = test system: MOLT-4 leukemia
NCI-H460 lung = test system: NCI-H460 lung
LOX IMVI melanoma = test system: LOX IMVI melanoma
SW-620 colon = test system: SW-620 colon
SNB-75 CNS = test system: SNB-75 CNS
DU-145 prostate = test system: DU-145 prostate
ACHN renal = test system: ACHN renal
RXF 393 renal = test system: RXF 393 renal
OVCAR-5 ovarian = test system: OVCAR-5 ovarian
NCI-H522 lung = test system: NCI-H522 lung
HOP-92 NSCLC = test system: HOP-92 NSCLC
OVCAR-3 ovarian = test system: OVCAR-3 ovarian
BT-549 breast = test system: BT-549 breast

Work on O=C(CC(C(=O)c1ccsc1)c1ccsc1)c1ccsc1 (stereo not given) yielded a TGI (TK-10 renal) greater than 100 µM, a TGI (NCI-H226 lung) greater than 100 µM and a TGI (K-562 leukemia) greater than 100 µM. For the same compound, the TGI (MDA-MB-231 breast) was greater than 100 µM, the TGI (CAKI-1 renal) was greater than 100 µM and the TGI (SN12C renal) was greater than 100 µM. For the same compound, the TGI (RPMI-8226 leukemia) was greater than 100 µM, the TGI (SK-MEL-2 melanoma) was greater than 100 µM and the TGI (U251 CNS) was greater than 100 µM. It also gave a TGI (SF-268 CNS) greater than 100 µM, a TGI (786-0 renal) greater than 100 µM and a TGI (KM12 colon) greater than 100 µM. The TGI (NCI-H23 lung) was greater than 100 µM, the TGI (COLO 205 colon) was greater than 100 µM and the TGI (HT29 colon) was greater than 100 µM. It also gave a TGI (IGROV1 ovarian) greater than 100 µM, a TGI (SK-OV-3 ovarian) greater than 100 µM and a TGI (HOP-62 NSCLC) greater than 100 µM. It also gave a TGI (SF-539 CNS) greater than 100 µM, a TGI (A549 NSCLC) greater than 100 µM and a TGI (HCT-116 colon) greater than 100 µM. The TGI (SR leukemia) was greater than 100 µM, the TGI (M14 melanoma) was greater than 100 µM and the TGI (OVCAR-8 ovarian) was greater than 100 µM. The TGI (HCT-15 colon) was greater than 100 µM, the TGI (SK-MEL-5 melanoma) was greater than 100 µM and the TGI (SNB-19 CNS) was greater than 100 µM. For the same compound, the TGI (T-47D breast) was greater than 100 µM, the TGI (UACC-62 melanoma) was greater than 100 µM and the TGI (OVCAR-4 ovarian) was greater than 100 µM. For the same compound, the TGI (SK-MEL-28 melanoma) was greater than 100 µM, the TGI (MCF7 breast) was greater than 100 µM and the TGI (A498 renal) was greater than 100 µM. For the same compound, the TGI (UACC-257 melanoma) was greater than 100 µM, the TGI (NCI/ADR-RES ovarian) was greater than 100 µM and the TGI (SF-295 CNS) was greater than 100 µM. It also gave a TGI (MALME-3M melanoma) greater than 100 µM, a TGI (HL-60(TB) leukemia) greater than 100 µM and a TGI (EKVX NSCLC) greater than 100 µM. For the same compound, the TGI (CCRF-CEM leukemia) was greater than 100 µM, the TGI (MDA-MB-435) was greater than 100 µM and the TGI (HCC-2998 colon) was greater than 100 µM. The TGI (PC-3 prostate) was greater than 100 µM, the TGI (HS 578T breast) was greater than 100 µM and the TGI (UO-31 renal) was greater than 100 µM. The TGI (MOLT-4 leukemia) was greater than 100 µM, the TGI (NCI-H460 lung) was greater than 100 µM and the TGI (LOX IMVI melanoma) was greater than 100 µM. It also gave a TGI (SW-620 colon) greater than 100 µM, a TGI (SNB-75 CNS) greater than 100 µM and a TGI (DU-145 prostate) greater than 100 µM. For the same compound, the TGI (ACHN renal) was greater than 100 µM.

CCOC(=O)c1c(C)nc2c(c1N)/C(=C/c1ccccn1)C(=O)N2Cc1ccccc1 gave a GI50 (TK-10 renal) of 1.51 µM, a TGI (TK-10 renal) greater than 50 µM and a GI50 (K-562 leukemia) of 1.77 µM. For the same compound, the TGI (K-562 leukemia) was greater than 50 µM, the GI50 (RXF 393 renal) was 0.95 µM and the TGI (RXF 393 renal) was 1.79 µM. It also gave a GI50 (SN12C renal) of 1.15 µM, a TGI (SN12C renal) of 3.09 µM and a GI50 (RPMI-8226 leukemia) of 1.21 µM. It also gave a TGI (RPMI-8226 leukemia) of 3.22 µM, a GI50 (SK-MEL-2 melanoma) of 1.16 µM and a TGI (SK-MEL-2 melanoma) of 3.01 µM. The GI50 (U251 CNS) was 0.948 µM, the TGI (U251 CNS) was 1.72 µM and the GI50 (SF-268 CNS) was 1.41 µM. For the same compound, the TGI (SF-268 CNS) was greater than 50 µM, the GI50 (786-0 renal) was 0.867 µM and the TGI (786-0 renal) was 1.68 µM. For the same compound, the GI50 (KM12 colon) was 1.15 µM, the TGI (KM12 colon) was 2.85 µM and the GI50 (NCI-H23 lung) was 1.29 µM. It also gave a TGI (NCI-H23 lung) of 4.35 µM, a GI50 (OVCAR-5 ovarian) of 1.04 µM and a TGI (OVCAR-5 ovarian) of 2.68 µM. The GI50 (COLO 205 colon) was 1.06 µM, the TGI (COLO 205 colon) was 2.38 µM and the GI50 (HT29 colon) was 1.32 µM. It also gave a TGI (HT29 colon) of 3.14 µM, a GI50 (IGROV1 ovarian) of 1.2 µM and a TGI (IGROV1 ovarian) of 3.47 µM. For the same compound, the GI50 (SK-OV-3 ovarian) was 3.08 µM, the TGI (SK-OV-3 ovarian) was greater than 50 µM and the GI50 (SF-539 CNS) was 0.882 µM. It also gave a TGI (SF-539 CNS) of 1.77 µM, a GI50 (A549 NSCLC) of 2.52 µM and a TGI (A549 NSCLC) greater than 50 µM. The GI50 (HCT-116 colon) was 0.847 µM, the TGI (HCT-116 colon) was 1.62 µM and the GI50 (SR leukemia) was 1.37 µM. For the same compound, the TGI (SR leukemia) was greater than 50 µM, the GI50 (M14 melanoma) was 1.03 µM and the TGI (M14 melanoma) was 2.39 µM. The GI50 (OVCAR-8 ovarian) was 1.65 µM, the TGI (OVCAR-8 ovarian) was greater than 50 µM and the GI50 (HCT-15 colon) was 1.07 µM. The TGI (HCT-15 colon) was 2.63 µM, the GI50 (NCI-H522 lung) was 1.06 µM and the TGI (NCI-H522 lung) was 2.89 µM. The GI50 (SK-MEL-5 melanoma) was 0.95 µM, the TGI (SK-MEL-5 melanoma) was 1.92 µM and the GI50 (SNB-19 CNS) was 1.09 µM. For the same compound, the TGI (SNB-19 CNS) was 2.49 µM, the GI50 (T-47D breast) was 1.13 µM and the TGI (T-47D breast) was 3.3 µM. The GI50 (UACC-62 melanoma) was 0.94 µM, the TGI (UACC-62 melanoma) was 1.96 µM and the GI50 (OVCAR-4 ovarian) was 1.51 µM. It also gave a TGI (OVCAR-4 ovarian) greater than 50 µM, a GI50 (SK-MEL-28 melanoma) of 1.16 µM and a TGI (SK-MEL-28 melanoma) of 3.21 µM. The GI50 (MCF7 breast) was 1.38 µM, the TGI (MCF7 breast) was 4.13 µM and the GI50 (A498 renal) was 1.54 µM. It also gave a TGI (A498 renal) greater than 50 µM, a GI50 (SF-295 CNS) of 1.9 µM and a TGI (SF-295 CNS) greater than 50 µM. For the same compound, the GI50 (HOP-92 NSCLC) was 0.903 µM, the TGI (HOP-92 NSCLC) was 1.86 µM and the GI50 (MALME-3M melanoma) was 0.937 µM. The TGI (MALME-3M melanoma) was 2.2 µM, the GI50 (HL-60(TB) leukemia) was 1.61 µM and the TGI (HL-60(TB) leukemia) was greater than 50 µM. The GI50 (EKVX NSCLC) was 1.21 µM, the TGI (EKVX NSCLC) was greater than 50 µM and the GI50 (CCRF-CEM leukemia) was 1.56 µM. The TGI (CCRF-CEM leukemia) was greater than 50 µM, the GI50 (HCC-2998 colon) was 0.895 µM and the TGI (HCC-2998 colon) was 1.77 µM. For the same compound, the GI50 (PC-3 prostate) was 1.17 µM, the TGI (PC-3 prostate) was 2.64 µM and the GI50 (HS 578T breast) was 2.82 µM. For the same compound, the TGI (HS 578T breast) was greater than 50 µM, the GI50 (UO-31 renal) was 0.691 µM and the TGI (UO-31 renal) was 1.37 µM. For the same compound, the GI50 (MOLT-4 leukemia) was 1.72 µM, the TGI (MOLT-4 leukemia) was greater than 50 µM and the GI50 (NCI-H460 lung) was 1.17 µM. It also gave a TGI (NCI-H460 lung) of 2.8 µM, a GI50 (LOX IMVI melanoma) of 0.83 µM and a TGI (LOX IMVI melanoma) of 1.54 µM. The GI50 (SW-620 colon) was 1 µM, the TGI (SW-620 colon) was 2.31 µM and the GI50 (OVCAR-3 ovarian) was 0.9 µM. The TGI (OVCAR-3 ovarian) was 1.71 µM, the GI50 (ACHN renal) was 0.906 µM and the TGI (ACHN renal) was 1.76 µM. The GI50 (BT-549 breast) was 1.11 µM and the TGI (BT-549 breast) was 3.09 µM.
